One assay addresses T1, α2A adrenergic receptor (Homo sapiens, UniProt P08913).
T1 construct: expressed in transfected cells; host or cells: NIH-3T3 cells
T1 sequence (P08913 1-465): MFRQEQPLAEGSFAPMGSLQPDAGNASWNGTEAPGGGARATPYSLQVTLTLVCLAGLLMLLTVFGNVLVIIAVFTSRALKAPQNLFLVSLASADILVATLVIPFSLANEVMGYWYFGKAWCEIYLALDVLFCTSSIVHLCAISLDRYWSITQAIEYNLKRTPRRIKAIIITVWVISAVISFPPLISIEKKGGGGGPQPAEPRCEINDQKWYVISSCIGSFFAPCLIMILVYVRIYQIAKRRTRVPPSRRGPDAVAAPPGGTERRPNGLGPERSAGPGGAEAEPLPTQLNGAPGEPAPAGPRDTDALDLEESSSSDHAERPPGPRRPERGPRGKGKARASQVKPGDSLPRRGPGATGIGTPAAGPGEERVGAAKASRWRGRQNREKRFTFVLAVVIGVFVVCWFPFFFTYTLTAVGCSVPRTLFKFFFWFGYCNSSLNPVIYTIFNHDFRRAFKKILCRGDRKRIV
As to the kind of experiment: RSAT (Receptor Selection and Amplification Technology) assay, α2A. The format is cell-based. The settings on record: NIH-3T3 cells cotransfected with receptor and G protein. As to the method:
Incubations continue 72-96 hr at 37° C.

For assay [1], the system named is IOP in the hypertensive eye. As to the kind of experiment: Telemetry IOP model (telemetrized primate model). The format is in vivo, Cynomolgus monkeys (macaca fascicularis). On the procedure: Cynomolgus (macaca fascicularis) monkeys weighing 3-5 kg with unilateral ocular hypertension in the right eye (OD) are used. Sustained elevated IOP is created by circumferential argon laser photocoagulation (Zeiss Visulas 532) of the mid-trabecular meshwork according to the method of Gaasterland and Kupfer (5). IOPs are assessed at T=−0.1, 0, 1, 2, 4, and 6, hours with an optional reading at 24 hours using an applanation pneumatonometer (Model 30 Classic, mentor Co). A drop of proparacaine (Allergan, Inc.) is instilled into the eyes just prior to IOP measurements. Monkeys are chaired and conditioned for tonometry for months before initiation of the study. Results are averaged from the 2 hr to the 6 hr time points (averages for each animal are calculated and the group mean determined) in an effort to simplify and standardize the data and include a comparison of sustained responses. Depending on the design of the study, either a paired or unpaired Student's t test is done. P<0.05 is considered significant.
Telemetry IOP model. Cynomolgus monkeys (3-5 kg) are made unilaterally ocular hypertensive by argon laser as noted above. The telemetry implant procedure is performed following elevation of IOP. Briefly, the scalp is prepared for aseptic surgery, followed by a 4 cm incision and tissue blunt-dissection to form a pocket in the underlying fascia to contain the pressure transducer. The catheter from the transducer is then guided subcutaneously to the orbit, and inserted into the vitreous cavity of the glaucoma eye through a small opening in the pars plana which is sutured closed and fixed with tissue adhesive. Receivers are placed into the animal cages and connected to a computer running Dataquest software for data capture. Animals are housed in a 12 hours light, 12 hours dark cycle: 6:00 AM ON, 6:00 PM OFF. Animals are used in drug studies following recovery from the surgical procedure which takes 2 weeks to 1 month. Dosing is done by transferring animals to restraining chairs. Animals are dosed without the aid of a sedative. […]

Where a name gives a salt, the structure may show the parent alone.

The compound `c1cnc2c(c1)CCC(Cc1c[nH]cn1)C2` (single isomer, unassigned; (-)) [(−) enantiomer, (−) 7-((1H-imidazol-4-yl)methyl)-5,6,7,8-tetrahydroquinoline] returned an EC50 on α2A adrenergic receptor of 58.4 nM. Further, the “% IOP decrease from baseline in the hypertensive eye” value (from here on “% IOP decrease from baseline”) in assay [1] (dose 0.30%) stood at 0%.

`c1cnc2c(c1)CCC(Cc1c[nH]cn1)C2` (racemic) [racemic mixture, 7-(1H-Imidazol-4-ylmethyl)-5,6,7,8-tetrahydro-quinoline dihydrochloride] came in with an EC50 on α2A adrenergic receptor of 3.9 nM. In assay [1] (dose 0.30%), the “% IOP decrease from baseline” value stood at 30%.

`c1cnc2c(c1)CCC(Cc1c[nH]cn1)C2` (single isomer, unassigned; (+)) [(+) enantiomer, (+)-7-(1H-imidazol-4-ylmethyl)-5,6,7,8-tetrahydro-quinoline dihydrochloride] returned an EC50 at α2A adrenergic receptor of 2.9 nM. Also, in assay [1] (dose 0.15%), the “% IOP decrease from baseline” value is 30%.
